Source: article PMC6202380 (2018)
Values belong to the compound of their own block, whether it stands above or below them.

Columns and labels:
[1] = system: 22AG (DNA, G4) AGGGTTAGGGTTAGGGTTAGGG; assay: CD spectroscopy; settings: 100 mM K+; K-100 buffer, pH 7.2, 20 °C; 5 µM DNA, 10 µM ligand
[2] = system: hras-1 (DNA, G4) TCGGGTTGCGGGCGCAGGGCACGGGCG; assay: CD spectroscopy; settings: 100 mM K+; K-100 buffer, pH 7.2, 20 °C; 5 µM DNA, 10 µM ligand
[3] = system: F-CEB25^L111-T (DNA, G4) AAGGGTGGGTGGGTGGGT; assay: FRET melting; settings: 1 mM K+, 99 mM Li+; 10 mM LiAsO2Me2, pH 7.2 (K-1); 0.2 µM DNA, 1 µM ligand
[4] = system: CEB25^WT (DNA, G4) AAGGGTGGGTGTAAGTGTGGGTGGGT; assay: fluorimetric titration, independent-site model; settings: 100 mM K+; K-100 buffer, pH 7.2; 2 µM ligand; Table 2 prints 0.54, text gives 0.54 to CEB25^L111
[5] = system: ds26 (DNA, duplex) CAATCGGATCGAATTCGATCCGATTG; assay: fluorimetric titration, independent-site model; settings: 100 mM K+; 10 mM LiAsO2Me2, pH 7.2 (K-100); 2 µM ligand
[6] = system: 22AG (DNA, G4) AGGGTTAGGGTTAGGGTTAGGG; assay: fluorimetric titration, independent-site model; settings: 2 µM ligand
[7] = system: CEB25^L111 (DNA, G4) AAGGGTGGGTGGGTGGGT; assay: fluorimetric titration, independent-site model; settings: 100 mM K+; K-100 buffer, pH 7.2; 2 µM ligand; value from text, Table 2 prints 1.5 for this oligonucleotide
[8] = system: Pu24T (DNA, G4) TGAGGGTGGTGAGGGTGGGGAAGG; assay: fluorimetric titration, independent-site model; settings: 100 mM K+; 10 mM LiAsO2Me2, pH 7.2 (K-100); 2 µM ligand
[9] = system: 22CTA (DNA, G4) AGGGCTAGGGCTAGGGCTAGGG; assay: fluorimetric titration, independent-site model; settings: 100 mM K+; 10 mM LiAsO2Me2, pH 7.2 (K-100); 2 µM ligand
[10] = system: hras-1 (DNA, G4) TCGGGTTGCGGGCGCAGGGCACGGGCG; assay: fluorimetric titration, independent-site model; settings: 100 mM K+; 10 mM LiAsO2Me2, pH 7.2 (K-100); 2 µM ligand
[11] = system: ^BrU-22AG (DNA, G4, 5-bromouracil (replacing T) at 5, 6, 11, 12, 17, 18) AGGGTTAGGGTTAGGGTTAGGG; assay: PAGE of UVA photoadduct; settings: 100 mM K+; covalent; K-100 buffer, pH 7.2; 5 µM DNA, 25 µM ligand, 365 nm
[12] = system: bcl2Mid (DNA, G4) GGGCGCGGGAGGAATTGGGCGGG; assay: fluorimetric titration, independent-site model; settings: 100 mM K+; 10 mM LiAsO2Me2, pH 7.2 (K-100); 2 µM ligand
[13] = system: 22AG (DNA, G4) AGGGTTAGGGTTAGGGTTAGGG; assay: fluorimetric titration; settings: 100 mM K+; K-100 buffer, pH 7.2; 2 µM ligand; binding constant could not be determined

binding [1]: yes
binding [2]: yes
Compound: NCCCN1CCNCc2ccc3cc(ccc3c2)CNCCOCCNCc2ccc3cc(ccc3c2)CNCC1

Ka [4]: 0.54 10^6 M^-1
Ka [5]: 480000 M⁻¹
Ka ([6]; 100 mM K+, 10 mM LiAsO2Me2, pH 7.2 (K-100)): 1.8e+06 M⁻¹
Ka ([6]; 100 mM Na+, 10 mM LiAsO2Me2, pH 7.2 (Na-100)): 1.4e+06 M⁻¹
Ka [7]: 540000 M⁻¹
Ka [8]: 1.5e+06 M⁻¹
ΔT½ [3]: 11 °C
Ka [9]: 3.9e+06 M⁻¹
Ka [10]: 1.1e+06 M⁻¹
binding [11]: yes
Ka [12]: 1.8e+06 M⁻¹
Compound: c1cc2ccc3ccc(CCCCNCCN4CCNCc5ccc6cc(ccc6c5)CNCCN(CCNCCCCc5ccc6ccc7cccc8ccc5c6c78)CCNCc5ccc6cc(ccc6c5)CNCC4)c4ccc(c1)c2c34

binding [2]: yes
binding [13]: yes
binding [11]: yes
Compound: c1cc2ccc3ccc(CCCCNCCN4CCNCc5ccc6cc(ccc6c5)CNCCOCCNCc5ccc6cc(ccc6c5)CNCC4)c4ccc(c1)c2c34

The remaining lines, values behind:

Compound: NCCN(CCN)CCNCCCCc1ccc2ccc3cccc4ccc1c2c34
binding [1]: yes
binding [2]: yes

Compound: C[n+]1cc(NC(=O)c2ccc3ccc4ccc(C(=O)Nc5cc6ccccc6[n+](C)c5)nc4c3n2)cc2ccccc21
ΔT½ [3]: 13 °C
